# Key:
# α4β1 = biological target: T1, α4β1 (Homo sapiens, UniProt P05556+P13612); assay: In vitro saturation assay for determining binding of candidate compounds to α4β1 (Jurkat cells in plasma, 15/7 antibody, FACS); format: cell-based; conditions: guinea pig, 30 mg/kg twice a day subcutaneously
# T1 construct: endogenous in cells; host or cells: Jurkat cells
# Method: The following describes an in vitro assay to determine the plasma levels needed for a compound to be active in the Experimental Autoimmune Encephalomyelitis (“EAE”) model, described in the next example, or in other in vivo models.
# Log-growth Jurkat cells are washed and resuspended in normal animal plasma containing 20 μg/ml of the 15/7 antibody (described in the above example).
# The Jurkat cells are diluted two-fold into either normal plasma samples containing known candidate compound amounts in various concentrations ranging from 66 μg/mL to 0.01 μg/mL, using a standard 12 point serial dilution for a standard curve, or into plasma samples obtained from the peripheral blood of candidate compound-treated animals.
# Cells are then incubated for 30 minutes at room temperature, washed twice with phosphate-buffered saline (“PBS”) containing 2% fetal bovine serum and 1 mM each of calcium chloride and magnesium chloride (assay medium) to remove unbound 15/7 antibody. […]
# Cells are washed twice with assay medium and resuspended in the same. They are then analyzed with a standard fluorescence activated cell sorter analysis as described in Yednock et al., J. Bio. […]
# The data is then graphed as fluorescence versus dose, e.g., in a normal dose-response fashion. […]
# [1] = system: demyelinated spinal cord lesions in chronic EAE of female Hartley guinea pigs; assay: Spontaneous remyelination in chronic EAE guinea pigs (solochrome-R-cyanin, toluidine blue semithin sections, EM, lesion area analysis); format: in vivo, guinea pig; conditions: for area of thinly myelinated axons in toluidine blue semithin sections vs saline / electron microscopy of lesioned spinal cord: day 30 of treatment
# [2] = system: experimental allergic encephalomyelitis in female Hartley guinea pigs; assay: Chronic EAE in guinea pigs: histological analysis and pathological score of brain and spinal cord; format: in vivo, guinea pig; conditions: for spinal cord histology after 20 days of treatment (day 60 post immunization) / spinal cord histology after 40 days of treatment (day 80 post immunization): SCR and H-E sections, vs saline
# Method: Animal Sacrifice and Histological Analysis. Untreated, chronic EAE animals (n=5) were sacrificed on day 40, as well as non-EAE controls (n=5). Following each 10-day treatment interval, 5 animals from each group were sacrificed (0.25 mL sodium pentobarbital), blood samples were collected for FACS analysis (see below), and the brain and spinal cord dissected and sectioned. Three spinal sections were used, corresponding to lumbar, thoracic and cervical regions of the cord. The brain was cut into five transverse sections. The first three proximal sections were combined in one block, and the last two distal sections in another. Tissues were fixed in 10% formalin and embedded in paraffin. […] sections were stained with hematoxylin-eosin (H-E) or solochrome-R-cyanlin (SCR) and evaluated by a blinded observer in each of four categories: (1) meningeal inflammation, (2) perivascular infiltration, (3) encephalitis or (4) myelitis and demyelination (Table 6). The combined pathological score represents the total score (out of a potential 20) from all 5 CNS sections in each animal.
# (§1) Statistical Analysis. Statistical analysis was performed using SigmaStat v2 software (SPSS Inc.). Clinical scores were assessed using the Mann Whitney rank sum test, while pathological scores were assessed with a two-Way ANOVA. Quantitative abnormalities were compared using Kruskal-Wallis ANOVA on ranks. In each case, p<0.05 was considered significant. A linear regression was performed on the mean cell counts in the spinal cord.
# [3] = system: experimental allergic encephalomyelitis in female Hartley guinea pigs; assay: Chronic EAE in guinea pigs: mean cell counts in spinal cord (H-E sections); format: in vivo, guinea pig; conditions: for cell number in spinal cord vs saline-treated animals: after 10, 20, 30 or 40 days of therapy, p<0.001 two-way ANOVA; for mean cell count in spinal cord 10 days after removal vs continuous treatment: p<0.05 ANOVA on ranks with SNK test
# Method: To quantify the abnormalities observed in the spinal cord, sections stained with H-E were divided into 12 representative pie-shaped areas. In each area, the number of cells within a 0.12 mm^2 field of view was counted using Sigma Scan Pro image analysis software (SPSS Inc.), and the combined mean number of cells in all 12 areas was calculated for the whole spinal cord (36 fields of view per animal). Note that as all cell nuclei were counted, the number of cells may include neurons and glial cells in addition to infiltrates.
# as §1
# [4] = listed as N-[N-(3-pyridinesulfonyl)-L-3,3-dimethyl-4-thiaprolyl]-O-[1-methylpiperzain-4-yl
# T1 sequence (P13612 34-1032): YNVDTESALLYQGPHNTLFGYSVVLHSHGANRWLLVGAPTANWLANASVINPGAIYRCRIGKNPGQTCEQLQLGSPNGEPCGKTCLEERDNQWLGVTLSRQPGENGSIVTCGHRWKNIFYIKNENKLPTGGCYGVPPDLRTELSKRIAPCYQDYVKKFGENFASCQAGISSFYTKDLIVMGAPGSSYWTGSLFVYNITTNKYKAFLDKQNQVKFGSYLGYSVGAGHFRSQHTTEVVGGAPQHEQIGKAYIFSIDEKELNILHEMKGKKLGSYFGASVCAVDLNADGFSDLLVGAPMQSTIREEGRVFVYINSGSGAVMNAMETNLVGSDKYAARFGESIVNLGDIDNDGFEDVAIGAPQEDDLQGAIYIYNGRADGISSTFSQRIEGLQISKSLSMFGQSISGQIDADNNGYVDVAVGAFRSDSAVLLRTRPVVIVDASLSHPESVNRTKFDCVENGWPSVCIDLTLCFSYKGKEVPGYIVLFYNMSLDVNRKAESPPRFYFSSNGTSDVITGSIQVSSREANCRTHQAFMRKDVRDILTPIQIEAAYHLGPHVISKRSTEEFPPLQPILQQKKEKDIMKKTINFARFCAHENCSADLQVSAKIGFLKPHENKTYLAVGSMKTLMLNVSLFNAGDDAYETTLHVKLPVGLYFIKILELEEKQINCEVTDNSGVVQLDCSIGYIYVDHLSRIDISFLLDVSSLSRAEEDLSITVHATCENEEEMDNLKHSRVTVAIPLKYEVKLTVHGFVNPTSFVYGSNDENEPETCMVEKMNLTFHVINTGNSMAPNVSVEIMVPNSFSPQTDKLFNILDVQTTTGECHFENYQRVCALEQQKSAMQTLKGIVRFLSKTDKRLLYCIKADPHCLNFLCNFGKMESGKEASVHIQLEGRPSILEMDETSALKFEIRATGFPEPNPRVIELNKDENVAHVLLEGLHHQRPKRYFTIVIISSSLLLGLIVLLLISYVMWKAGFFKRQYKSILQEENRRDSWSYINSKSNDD
# T1 sequence (P05556 21-798): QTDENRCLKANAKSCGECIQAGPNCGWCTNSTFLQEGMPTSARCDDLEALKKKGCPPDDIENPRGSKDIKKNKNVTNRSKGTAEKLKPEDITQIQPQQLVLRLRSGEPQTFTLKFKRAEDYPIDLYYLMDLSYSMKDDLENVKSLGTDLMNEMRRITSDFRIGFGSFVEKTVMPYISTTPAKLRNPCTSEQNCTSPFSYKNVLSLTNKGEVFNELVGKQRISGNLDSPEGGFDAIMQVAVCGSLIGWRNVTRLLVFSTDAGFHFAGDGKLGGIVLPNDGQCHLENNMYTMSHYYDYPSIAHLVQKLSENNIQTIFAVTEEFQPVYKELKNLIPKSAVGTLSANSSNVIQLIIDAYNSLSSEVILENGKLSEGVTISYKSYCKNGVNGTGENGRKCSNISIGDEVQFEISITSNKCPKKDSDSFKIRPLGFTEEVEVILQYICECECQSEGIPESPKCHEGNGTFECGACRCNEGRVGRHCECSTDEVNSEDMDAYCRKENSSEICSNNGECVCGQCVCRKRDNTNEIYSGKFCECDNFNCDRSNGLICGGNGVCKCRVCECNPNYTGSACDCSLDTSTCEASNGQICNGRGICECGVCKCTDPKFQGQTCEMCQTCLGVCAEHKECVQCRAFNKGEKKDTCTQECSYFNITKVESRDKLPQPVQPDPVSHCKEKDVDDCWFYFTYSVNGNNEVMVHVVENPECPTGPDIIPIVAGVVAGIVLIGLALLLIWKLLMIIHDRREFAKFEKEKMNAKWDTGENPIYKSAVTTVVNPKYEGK
smiles,measurement,setting,value
"CC(C)OC(=O)[C@H](Cc1ccc(OC(=O)N2CCN(C)CC2)cc1)NC(=O)[C@H]1N(S(=O)(=O)c2cccnc2)CSC1(C)C [N-[N-(3-pyridinesulfonyl)-L-3,3-dimethyl-4-thiaprolyl]-O-[1-methylpiperazin-4-ylcarbonyl]-L-tyrosine isopropyl ester]",receptor saturation levels maintained at all times,α4β1,> 10 nm
same,incidence of remyelination (lesions showing myelin pallor as percent of all lesions) vs saline,"[1]; 10-40 days, time-dependent",increased the incidence of remyelination
same,appearance of spinal cord lesions after 10 days of treatment (solochrome-R-cyanin),[1]; 10 days,minimal evidence of myelin pallor
same,appearance of spinal cord lesions after 20 days of therapy (solochrome-R-cyanin),[1],many lesions exhibited diffuse pale blue staining
same,appearance of spinal cord lesions after 20 days of therapy (solochrome-R-cyanin),[1]; [4],diffuse blue stain covering the plaque
same,appearance of spinal cord lesions after 40 days of therapy (solochrome-R-cyanin),[1],presented as shadow plaques
same,appearance of spinal cord lesions after 40 days of therapy (solochrome-R-cyanin),[1]; [4],majority of lesions showed clear myelin pallor
same,area of remyelination as percent of total lesion area,"[1]; after 20, 30 or 40 days of therapy",50%
same,degree of remyelination of individual lesions,"[1]; after 20, 30 or 40 days of treatment",0-100%
same,area of thinly myelinated axons in toluidine blue semithin sections vs saline,[1],greatly expanded
same,electron microscopy of lesioned spinal cord,[1],multiple thin myelin layers around large caliber axons
same,area of thinly myelinated axons in toluidine blue semithin sections vs saline,[1]; [4],more extensive
same,electron microscopy of lesioned spinal cord,[1]; [4],multiple layers of thin myelin wrappings around large diameter axons
same,animals that regained motor function,[1]; paralyzed guinea pigs (clinical score 2) treated up to 40 days,50%
same,"mean pathological score in each of four categories (meningeal inflammation, perivascular infiltration, encephalitis/myelitis, demyelination) vs saline","[2]; 10-40 days treatment, p<0.001 two-way ANOVA",significant decrease
same,spinal cord histology after 20 days of treatment (day 60 post immunization),[2],much smaller areas of demyelination
same,spinal cord histology after 40 days of treatment (day 80 post immunization),[2],almost no meningeal and perivascular infiltration
same,spinal cord histology after 20 days of treatment (day 60 post immunization),[2]; [4],much smaller area of demyelination
same,spinal cord histology after 40 days of treatment (day 80 post immunization),[2]; [4],almost no meningeal and perivascular inflammation
same,mean combined pathological score after withdrawal for 10 days vs continued treatment,[2]; p<0.05 Kruskal Wallis ANOVA on ranks with SNK test,significantly higher
same,cell number in spinal cord vs saline-treated animals,[3],significant reduction
same,cell number in spinal cord vs saline-treated animals,[3]; [4],fewer cells
same,mean cell counts in spinal cord vs chronic control (d40) EAE animals,"[3]; after 20, 30 or 40 days of treatment, p<0.05",significantly lower
same,mean cell count in spinal cord vs non-EAE animals,[3]; after 40 days of treatment,not different
same,mean cell count in spinal cord 10 days after removal vs continuous treatment,[3],significant increase
same,mean cell count in spinal cord 10 days after removal vs continuous treatment,[3]; [4],significantly increased
same,rate of cell loss in spinal cord,[3]; slope of linear regression of mean cell counts (r^2=0.90),8 cells/mm^2/day

# Source: US7576101B2, “Composition for and treatment of demyelinating diseases and paralysis by administration of remyelinating agents” (Elan Pharmaceuticals, Inc., priority 2003, dated 2009)
